Measurements taken from patent US20040063694A1, “Compound useful for the treatment of CNS disorders” (priority 2002, published 2004).

How the values were obtained:
[1] = solubility in aqueous systems; assay type: physicochemical
Source text: It is known that rate of dissolution of drug particles can be increased by increasing the surface area of the solid, i.e., decreasing the particle size. Consequently, methods of making finely divided drugs have been studied and efforts have been made to control the size and size range of drug particles in pharmaceutical compositions. For example, dry milling techniques have been used to reduce particle size and thereby influence drug absorption. However, in conventional dry milling, as discussed by Lachman et al., The Theory and Practice of Industrial Pharmacy, Chapter 2, “Milling”, p. 45 (1986), the limit of fineness is reached in the region of about 100 µm (=100,000 nm), where the milled material begins to cake onto the surfaces of the milling chamber. Lachman et al. note that wet grinding is beneficial in further reducing particle size, but that flocculation restricts the lower particle size limit to approximately 10 µm (=10,000 nm). Commercial airjet milling techniques have provided particles ranging in average particle size from as low as about 1 µm to 50 µm (=1,000 nm to 50,000 nm). It is […], however, that the 2-ethyl homolog of this invention is advantageously milled according to the above processes to make the compound having an average particle size of between about 1-200 micrometers. The preferred average particle size is less than 200 micrometers.

5HT-1 receptors = experiment: activity at 5HT-1 receptors
Source text: (§1) The compound of the invention in all its forms is useful in the treatment of various central nervous system (CNS) disorders or conditions. The compound has been tested using standard behavioral models predictive of antipsychotic activity. These tests include the tests conducted in published papers mentioned above including the rat conditioned avoidance test, the rat catalepsy test and other tests including binding assays to central nervous system receptors including D-1 and D-2 dopamine receptors.

[2] = twenty-six week dog study, total cholesterol; conditions: female beagle dogs
Experimental: The dogs are studied over a course of 8 mgs/kg/day per drug for a twenty-six week period and assessed at varying time points for LDL, HDL and total cholesterol as well as having their estrous cycle monitored and measured. […] The preferred normal range in human patients of cholesterol level (total) is described in the Merck Manual as 120-220 mg/Dl.

[3] = beagle dogs; as stated in the '382 patent (alleged); cited from earlier work
[4] = 16 mg/kg, Chakabarti et al. J. Med. Chem. 1980; cited from earlier work
[5] = twenty-six week dog study, blood glucose levels; conditions: female beagle dogs
Experimental: In addition to total cholesterol values other parameters were measured including blood glucose levels at pretest, week 13 and week 26 of the study.

5HT-2 receptors = experiment: activity at 5HT-2 receptors
Source text: as §1

[6] = 10 mg/kg, Chakabarti et al. J. Med. Chem. 1980; cited from earlier work
[7] = previous dog study on a smaller group of animals, cholesterol; conditions: for rise in cholesterol: male or female beagle dogs, 4 mgs/kg/day

| Structure (SMILES) | solubility in aqueous systems relative to olanzapine [1] | activity at the 5HT-1 receptors (5HT-1 receptors) | total average cholesterol values ([2]; 8 mgs/kg/day, twenty six weeks, effect of normal estrous cycle variations discounted) [mg/dL] | average total cholesterol value, spike at a single point early on in the study ([2]; oral 8 mgs/kg/day) [mgs/dL] | mean total cholesterol values after the full duration of the study ([2]; oral 8 mgs/kg/day, twenty-six weeks, n=15 per arm) [mgs/dL] | cholesterol raising effect [3] | rat catalepsy test [4] | blood glucose level, week 13 ([5]; oral 8 mgs/kg/day, week 13) [mg/dL] | blood glucose level, week 26 ([5]; oral 8 mgs/kg/day, week 26) [mg/dL] | blood glucose level, pretest ([5]; pretest (before dosing)) [mg/dL] | activity at the 5HT-2 receptors (5HT-2 receptors) | rat conditioned avoidance test data [6] | rise in cholesterol relative to placebo ([7]; male beagle dogs, 8 mgs/kg/day) | rise in cholesterol [7] |
| --- | --- | --- | --- | --- | --- | --- | --- | --- | --- | --- | --- | --- | --- | --- |
| CCc1cc2c(s1)Nc1ccccc1N=C2N1CCN(C)CC1 [Example 222, 2-ethyl-10-(4-methyl-1-piperazinyl)-4H-thieno[2,3-b][1,5]benzodiazepine] | slightly less soluble than olanzapine | shows activity | ≤ 240 | 237.2 | 186.8 | some cholesterol raising effect | 1 | 87.9 | 77.6 | 82.5 | shows activity | 2 (31-50% block) | no rise in cholesterol | no rise in cholesterol |
| Cc1cc2c(s1)Nc1ccccc1N=C2N1CCN(C)CC1 [olanzapine, 2-methyl-10-(4-methyl-1-piperazinyl)-4H-thieno[2,3-b][1,5]benzodiazepine, reference compound] |  |  |  |  |  |  |  |  |  |  |  |  |  | no rise in cholesterol |
